Reference: patent publication US20260001928A1 (CORTERIA PHARMACEUTICALS, priority 2022, published 2026)
*1 amine or outer side, *2 acyl side, *3 side chain or, on linkers, in order; H or OH if unused. Where a SMILES comes first, the peptide text is derived from it. Side-chain parts run from the residue outwards. [ ]: non-standard residue; d: D form. The star is where a group is joined. C20 diacid = O=C(O)CCCCCCCCCCCCCCCCCCC(=O)*; γGlu = O=C(O)[C@H](CCC(=O)[*:2])N[*:1]; Decanoyl = CCCCCCCCCC(=O)*; Pentanoyl = CCCCC(=O)*; AEEA = NCCOCCOCC(=O)O; Aib = CC(C)(N)C(=O)O

Tests used:
[1] = Pharmacokinetics in male Sprague Dawley rats after subcutaneous administration; format: in vivo; details: plasma, rat, SC
[2] = as above; format: in vivo; details: plasma, rat
[3] = In vitro subcutaneous tissue supernatant (SCts) stability and metabolite identification, rat; format: in vitro ADME; parameters: remaining at 2 h: dose or concentration left out as unconfirmed; details: male, Sprague Dawley; rat subcutaneous tissue supernatant (SCts), 37° C, 2 h
[4] = test system: Sprague Dawley rats; experiment: Effect on systolic blood pressure, telemetry in Sprague Dawley rats; format: in vivo, rat; details: 0.1 mg/kg SC; for Systolic blood pressure (Mean) % change from baseline, 8 h / Systolic blood pressure (Mean) % change from baseline, 12 h / Systolic blood pressure (Mean) % change from baseline, 24 h: n=2; for Duration of action: last time point with an effect on BP still observed
In short: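 Sprague Dawley rats with abdominal-aorta telemetry catheters, recovered ≥10 days, received 0.1 mg/kg SC of compound or vehicle. Systolic pressure recorded 1 h pre-dose as baseline, then continuously up to 48 hours, expressed as % change from baseline; duration of action is last time point with a BP effect (n=2).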

[5] = target: T1, CFR1R receptor (Homo sapiens, UniProt P34998); experiment: Activity at anti-target CFR1R receptor, cAMP assay in CRF1R-overexpression CHO-K1 cells; format: cell-based; details: 100% = Sauvagine at 100 nM
T1 construct: host or cells: CHO-K1 (clone 2)
T1 sequence (P34998 24-415): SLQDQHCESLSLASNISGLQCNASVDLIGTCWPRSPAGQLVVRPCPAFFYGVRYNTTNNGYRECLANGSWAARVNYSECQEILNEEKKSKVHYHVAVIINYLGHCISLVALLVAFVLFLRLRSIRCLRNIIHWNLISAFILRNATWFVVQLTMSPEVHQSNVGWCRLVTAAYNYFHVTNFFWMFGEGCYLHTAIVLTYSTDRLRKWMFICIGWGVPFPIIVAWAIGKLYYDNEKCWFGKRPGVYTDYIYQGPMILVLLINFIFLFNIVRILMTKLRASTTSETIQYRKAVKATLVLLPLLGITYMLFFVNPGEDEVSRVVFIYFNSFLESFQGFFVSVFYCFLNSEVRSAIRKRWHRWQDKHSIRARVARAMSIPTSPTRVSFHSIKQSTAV
In short: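 Signal is normalised to 100 nM Sauvagine, taken as 100% activation, in clone 2 cells plated at a final 4000 cells/well from frozen stocks.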

[6] = Chemical stability in buffer (pH 7.4 / pH 4.5), % purity loss; format: physicochemical; details: 40° C. vs 5° C., 14 or 28 days; for Buffer stability pH 7.4 % purity loss: 100 mM phosphate buffer pH 7.4
In short: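 Compounds dissolved at 10 mg/mL target in 100 mM phosphate (pH 7.4) or 100 mM acetate (pH 4.5) buffer for 1 h at room temperature, then centrifuged. Diluted supernatant stored at 5 °C or 40 °C for 14 or 28 days; % purity loss by LC-UV.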

[7] = target: T2, human CRF2a receptor (Homo sapiens, UniProt Q13324); experiment: Activity at human CRF2a receptor, cAMP functional assay in TeloHEAC cells; format: cell-based; details: TeloHEAC cells stably expressing human CRF2a receptor, relative to urocortin 2 (100 nM = 100%)
T2 construct: expressed in transfected cells; host or cells: TeloHEAC cells
T2 sequence (Q13324 1-411): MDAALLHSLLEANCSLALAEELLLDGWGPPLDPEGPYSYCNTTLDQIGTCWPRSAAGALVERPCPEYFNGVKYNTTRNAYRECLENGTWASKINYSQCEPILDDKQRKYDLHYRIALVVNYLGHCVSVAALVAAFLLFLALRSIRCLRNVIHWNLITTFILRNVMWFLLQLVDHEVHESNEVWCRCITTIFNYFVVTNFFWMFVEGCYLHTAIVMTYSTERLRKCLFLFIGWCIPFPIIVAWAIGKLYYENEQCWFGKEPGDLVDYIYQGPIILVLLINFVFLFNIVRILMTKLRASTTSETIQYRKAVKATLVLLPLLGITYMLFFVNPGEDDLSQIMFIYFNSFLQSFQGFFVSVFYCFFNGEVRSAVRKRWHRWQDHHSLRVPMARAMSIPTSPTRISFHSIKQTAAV
In short: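 cAMP accumulation was measured by HTRF 665/620 nm ratio after 30 min at 37° C compound exposure (16 twofold dilutions) of CRF2a-expressing TeloHEAC cells, 10000/well, in HEPES-buffered HBSS plus IBMX. Activity was normalised to urocortin 2 at 100 nM (100%), and EC50 was the concentration giving half-maximal activation.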

| remaining at 2 h [3] [%] | Emax (% I) [5] [% I] | Buffer stability pH 7.4 % purity loss [6] | EC50 [7] [pM] | AUC(0-t) ([1]; 0.05 mg/kg) [ng·h/mL] | Cmax ([1]; 0.05 mg/kg) [ng/mL] | Tmax ([1]; 0.05 mg/kg) [h] | half-life ([1]; 0.05 mg/kg) [h] | AUC(0-t) ([2]; IV, 0.025 mg/kg) [ng·h/mL] | half-life ([2]; IV, 0.025 mg/kg) [h] | SMILES | Systolic blood pressure (Mean) % change from baseline, 8 h [4] [%] | Systolic blood pressure (Mean) % change from baseline, 12 h [4] [%] | Systolic blood pressure (Mean) % change from baseline, 24 h [4] [%] | Duration of action [4] [h] | also measured |
| --- | --- | --- | --- | --- | --- | --- | --- | --- | --- | --- | --- | --- | --- | --- | --- |
| 71 | 48 | −2.1/Not Tested % | 160 | – | – | – | – | – | – | CCCCC(=O)N[C@H](C(=O)N[C@@H](CC(C)C)C(=O)N[C@@H](CO)C(=O)N[C@@H](CC(C)C)C(=O)N[C@@H](CC(=O)O)C(=O)N[C@@H](C(=O)N1CCC[C@H]1C(=O)N[C@H](C(=O)N[C@@H](CCCCN)C(=O)N[C@@H](CC(C)C)C(=O)N[C@@H](CCCCNC(=O)CC[C@H](NC(=O)CCCCCCCCCCCCCCCCCCC(=O)O)C(=O)O)C(=O)N[C@@H](CCCCN)C(=O)N[C@H](C(=O)N[C@@H](CC(C)C)C(=O)N[C@@H](CC(C)C)C(=O)N[C@@H](CCC(=O)O)C(=O)N[C@@H](CCC(N)=O)C(=O)N[C@@H](CCC(=O)O)C(=O)N[C@@H](CCCCN)C(=O)N[C@@H](CCC(N)=O)C(=O)N[C@@H](CCCCN)C(=O)N[C@@H](CCCCN)C(=O)N[C@@H](CCC(N)=O)C(=O)N[C@@H](CCCNC(=N)N)C(=O)N[C@@H](CCC(=O)O)C(=O)N[C@@H](CCC(N)=O)C(=O)N[C@@H](C)C(=O)N[C@@H](CCC(=O)O)C(=O)N[C@H](C(=O)N[C@@H](CC(N)=O)C(=O)NC(C)(C)C(=O)N[C@@H](CCC(N)=O)C(=O)N[C@H](C(=O)N[C@@H](CC(C)C)C(=O)N[C@@H](C)C(=O)N[C@@H](CCC(N)=O)C(=O)N[C@H](C(N)=O)C(C)C)[C@@H](C)CC)[C@@H](C)O)[C@@H](C)CC)[C@@H](C)CC)C(C)C)C(C)C [compound 219] (Pentanoyl-VLSLD[dV]PIKLK([γGlu-C20 diacid])KILLEQEKQKKQREQAETN[Aib]QILAQV-NH2) | −10 | −13 | −10 | >24 | AUC(0-t) ([1]; 0.1 mg/kg): 4520 ng·h/mL; Cmax ([1]; 0.1 mg/kg): 156 ng/mL; AUC(0-t) ([2]; IV, 0.05 mg/kg): 5320 ng·h/mL; half-life ([2]; IV, 0.05 mg/kg): 6 h; Tmax ([2]; SC, 0.1 mg/kg): 8 h; half-life ([2]; SC, 0.1 mg/kg): 15 h |
| 62 | 50 | 0.0/Not Tested % | 140 | 2890 | 113 | 8 | 12 | 3320 | 7 | CCCCC(=O)N[C@H](C(=O)N[C@@H](CC(C)C)C(=O)N[C@@H](CO)C(=O)N[C@@H](CC(C)C)C(=O)N[C@@H](CC(=O)O)C(=O)N[C@@H](C(=O)N1CCC[C@H]1C(=O)N[C@H](C(=O)N[C@@H](CCCCN)C(=O)N[C@@H](CC(C)C)C(=O)N[C@@H](CCCCNC(=O)CC[C@H](NC(=O)CCCCCCCCCCCCCCCCCCC(=O)O)C(=O)O)C(=O)N[C@@H](CCCCN)C(=O)N[C@H](C(=O)N[C@@H](CC(C)C)C(=O)N[C@@H](CC(C)C)C(=O)N[C@@H](CCC(=O)O)C(=O)N[C@@H](CCC(N)=O)C(=O)N[C@@H](CCC(=O)O)C(=O)N[C@@H](CCCCN)C(=O)N[C@@H](CCC(N)=O)C(=O)N[C@@H](CCCCN)C(=O)N[C@@H](C)C(=O)N[C@@H](CCC(N)=O)C(=O)N[C@@H](CCCNC(=N)N)C(=O)N[C@@H](CCC(=O)O)C(=O)N[C@@H](CCC(N)=O)C(=O)N[C@@H](C)C(=O)N[C@@H](CCC(=O)O)C(=O)N[C@H](C(=O)N[C@@H](CC(N)=O)C(=O)NC(C)(C)C(=O)N[C@@H](CCC(N)=O)C(=O)N[C@H](C(=O)N[C@@H](CC(C)C)C(=O)N[C@@H](C)C(=O)N[C@@H](CCC(N)=O)C(=O)N[C@H](C(N)=O)C(C)C)[C@@H](C)CC)[C@@H](C)O)[C@@H](C)CC)[C@@H](C)CC)C(C)C)C(C)C [compound 222] (Pentanoyl-VLSLD[dV]PIKLK([γGlu-C20 diacid])KILLEQEKQKAQREQAETN[Aib]QILAQV-NH2) | – | – | – | – | – |
| 79 | 58 | −0.1/Not Tested % | 80 | 698 | 67 | 2 | 6.5 | 1920 | 2.8 | CCCCCCCCCC(=O)N[C@H](C(=O)N[C@@H](CC(C)C)C(=O)N[C@@H](CO)C(=O)N[C@@H](CC(C)C)C(=O)N[C@@H](CC(=O)O)C(=O)N[C@@H](C(=O)N1CCC[C@H]1C(=O)N[C@H](C(=O)N[C@@H](CCCCN)C(=O)N[C@@H](CC(C)C)C(=O)N[C@@H](CCCCNC(=O)CC[C@H](NC(=O)CCCCCCCCCCCCCCCCCCC(=O)O)C(=O)O)C(=O)N[C@@H](CCCCN)C(=O)N[C@H](C(=O)N[C@@H](CC(C)C)C(=O)N[C@@H](CC(C)C)C(=O)N[C@@H](CCC(=O)O)C(=O)N[C@@H](CCC(N)=O)C(=O)N[C@@H](CCC(=O)O)C(=O)N[C@@H](CCCCN)C(=O)N[C@@H](CCC(N)=O)C(=O)N[C@@H](CCCCN)C(=O)N[C@@H](CCCCN)C(=O)N[C@@H](CCC(N)=O)C(=O)N[C@@H](CCCNC(=N)N)C(=O)N[C@@H](CCC(=O)O)C(=O)N[C@@H](CCC(N)=O)C(=O)N[C@@H](C)C(=O)N[C@@H](CCC(=O)O)C(=O)N[C@H](C(=O)N[C@@H](CC(N)=O)C(=O)NC(C)(C)C(=O)N[C@@H](CCC(N)=O)C(=O)N[C@H](C(=O)N[C@@H](CC(C)C)C(=O)N[C@@H](C)C(=O)N[C@@H](CCC(N)=O)C(=O)N[C@H](C(N)=O)C(C)C)[C@@H](C)CC)[C@@H](C)O)[C@@H](C)CC)[C@@H](C)CC)C(C)C)C(C)C [compound 223] (Decanoyl-VLSLD[dV]PIKLK([γGlu-C20 diacid])KILLEQEKQKKQREQAETN[Aib]QILAQV-NH2) | – | – | – | – | – |
| 66 | 27 | 0.0% | 160 | – | – | – | – | 4510 | 8 | CCCCC(=O)N[C@H](C(=O)N[C@@H](CC(C)C)C(=O)N[C@@H](CO)C(=O)N[C@@H](CC(C)C)C(=O)N[C@@H](CC(=O)O)C(=O)N[C@@H](C(=O)N1CCC[C@H]1C(=O)N[C@H](C(=O)N[C@@H](CCCCN)C(=O)N[C@@H](CC(C)C)C(=O)N[C@@H](CCCCNC(=O)COCCOCCNC(=O)CC[C@H](NC(=O)CCCCCCCCCCCCCCCCCCC(=O)O)C(=O)O)C(=O)N[C@@H](CCCCN)C(=O)N[C@H](C(=O)N[C@@H](CC(C)C)C(=O)N[C@@H](CC(C)C)C(=O)N[C@@H](CCC(=O)O)C(=O)N[C@@H](CCC(N)=O)C(=O)N[C@@H](CCC(=O)O)C(=O)N[C@@H](CCCCN)C(=O)N[C@@H](CCC(N)=O)C(=O)N[C@@H](CCCCN)C(=O)N[C@@H](CCCCN)C(=O)N[C@@H](CCC(N)=O)C(=O)N[C@@H](CCCNC(=N)N)C(=O)N[C@@H](CCC(=O)O)C(=O)N[C@@H](CCC(N)=O)C(=O)N[C@@H](C)C(=O)N[C@@H](CCC(=O)O)C(=O)N[C@H](C(=O)N[C@@H](CC(N)=O)C(=O)NC(C)(C)C(=O)N[C@@H](CCC(N)=O)C(=O)N[C@H](C(=O)N[C@@H](CC(C)C)C(=O)N[C@@H](C)C(=O)N[C@@H](CCC(N)=O)C(=O)N[C@H](C(N)=O)C(C)C)[C@@H](C)CC)[C@@H](C)O)[C@@H](C)CC)[C@@H](C)CC)C(C)C)C(C)C [compound 235] (Pentanoyl-VLSLD[dV]PIKLK([AEEA-γGlu-C20 diacid])KILLEQEKQKKQREQAETN[Aib]QILAQV-NH2) | −8 | −7 | −12 | >24 | EC50 ([5]; cAMP): > 250000 pM; Buffer stability pH 4.5 % purity loss ([6]; 100 mM acetate buffer pH 4.5): −1.6% |
